Data: patent US20250340579A1 (priority 2022, published 2025)

Assays:
[1] = in vivo; cited from earlier work
[2] = pH 7.4

Row | Compound | effectiveness post-cyanide exposure versus pre-exposure [1] | solution stability [2]
1 | C/C1=C2/[N-][C@H]([C@H](CC(N)=O)[C@@]2(C)CCC(=O)NC[C@@H](C)O)[C@]2(C)N=C(/C(C)=C3N=C(/C=C4N=C1[C@@H](CCC(N)=O)C\4(C)C)[C@@H](CCC(N)=O)[C@]\3(C)CC(N)=O)[C@@H](CCC(N)=O)[C@]2(C)CC(N)=O.[Co+3] [Cobinamide] | as effective when administered up to 5 minutes post-cyanide exposure as when given pre-exposure | –
2 | bis-aminotetrazole-cobinamide | – | stable at room temperature when protected from bright light
